We go through 4 molecules from US9248115B2, “Silibinin component for the treatment of hepatitis” (MADAUS GmbH, priority 2007, dated 2016).

The nature of series [1]: Example 3: plasma pharmacokinetics of free and total silibinin A and B after Legalon SIL infusion (HPLC-UV). Type of series: in vivo, human. Conditions: for AUC(0-∞), free silibinin: 20 mg/kg iv Legalon SIL, 8 hepatitis C patients; for AUC(0-∞), free silibinin / MRT / Tmax / clearance / Vd / half-life: plasma; for MRT / Tmax / clearance / Vd / half-life: human, intravenous, 20 mg/kg; for clearance: read-out: CL, free silibinin (converted); for Vd: read-out: Vz, free silibinin; for half-life: read-out: t1/2, free silibinin (converted). How it is done: An in vivo study was performed to characterize plasma concentration/time profiles of silibinin in 8 patients suffering from chronic hepatitis C who received 7 days i.v. infusion treatment with 20 mg silibinin/kg body weight (Legalon® SIL). For multiple doses of 20 mg/kg body weight, plasma concentration/time profiles and PK parameters of free and total silibinin had been observed on day 1 (=single dose conditions) and were compared with those on day 7 (=expected steady state conditions).
The study samples were analyzed using a validated HPLC-UV method. During the assay period the analytical procedure was validated by two calibration curves per analytical run.

A short description of series [2]: Serum ALT during iv silibinin monotherapy (Protocol 1). Conditions: 10 mg/kg/day iv for 7 days; decreased from 162±133; p=0.004. Type of series: in vivo, human. How it is done:
Patients first received daily 10 mg/kg silibinin (Legalon Sil®, Madaus, Köln) infused over 4 hrs for 7 consecutive days. On day 1 blood was drawn for determination of oxidative stress parameters at baseline, every 30 minutes during the infusion and 2 hours after the end of the infusion. On day 8 treatment was changed to 140 mg silymarin (Legalon®, Madaus, Köln) TID per os in combination with 180 μ[…]®; Roche, Basel) and 1-1.2 g/d ribavirin (COPEGUS®; Roche, Basel).

The subject of series [3] is hepatitis C virus. The series can be described thus: Protocol 1: serum HCV RNA (TaqMan PCR) in peginterferon/ribavirin nonresponders, iv silibinin for 7 days. Type of series: in vivo, human. The following applies: monotherapy. The method, then: Patients with previous nonresponse to full dose of peginterferon/ribavirin combination therapy were selected for these studies. […] Patients were required to have a liver biopsy done within 2 years prior inclusion into this study. Standard inclusion/exclusion criteria for peginterferon/ribavirin therapy were applied. Patients first received daily 10 mg/kg silibinin (Legalon Sil®, Madaus, Köln) infused over 4 hrs for 7 consecutive days. On day 1 blood was drawn for determination of oxidative stress parameters at baseline, every 30 minutes during the infusion and 2 hours after the end of the infusion. On day 8 treatment was changed to 140 mg silymarin (Legalon®, Madaus, Köln) TID per os in combination with 180 μ[…]®; Roche, Basel) and 1-1.2 g/d ribavirin (COPEGUS®; Roche, Basel). In both protocols in case of intolerance to PEG-IFN alfa2a or ribavirin, standard dose adjustment guidelines were used. Antiviral combination therapy was given for a total of 24 weeks (with the Option to stop treatment in patients without a >2 log drop at week 12); virologic responders at week 24 were offered to continue treatment for further 48 weeks. After end of the infusion period patients were tested after weeks 2, 4, and then monthly till the end of therapy at week 24. Serum HCV RNA level was determined by the TaqMan PCR assay (Cobas […] TaqMan HCV Test; limit of detection, 15 IU/mL, Roche Diagnostics).

The subject of series [4] is hepatitis C virus. Put plainly: Example 2: iv silibinin co-treatment during ongoing peginterferon/ribavirin, HCV-RNA. It is filed as in vivo, human. How it is done:
Patients were continuously treated with 180 μg peginterferon alfa 2a and weight based ribavirin. In spite of this treatment, five patients were HCV-RNA positive after 24 weeks of therapy: Three male patients and two female patients; four patients with HCV genotype 1 and one patient with HCV genotype 3a; three patients with cirrhosis. Four patients can be regarded as naïve, whereas one patient can be regarded as […] respect to two previous therapies (24 and 48 weeks). In the course of the ongoing treatment with 180 μg peginterferon alfa 2a and weight based ribavirin, all patients were treated at least once for 14 consecutive days with 20 mg/kg/d silibinin iv. During this period, combination therapy with peginterferon/ribavirin was continued.

Series [5] deals with T1, HCV NS5BΔ21 polymerase genotype J4 (1b) (Hepatitis C virus genotype 1b, UniProt O92972).
T1 construct: HCV NS5BΔ21 polymerase genotype J4 (1b)
T1 sequence (O92972 2420-2989, stated change not applied): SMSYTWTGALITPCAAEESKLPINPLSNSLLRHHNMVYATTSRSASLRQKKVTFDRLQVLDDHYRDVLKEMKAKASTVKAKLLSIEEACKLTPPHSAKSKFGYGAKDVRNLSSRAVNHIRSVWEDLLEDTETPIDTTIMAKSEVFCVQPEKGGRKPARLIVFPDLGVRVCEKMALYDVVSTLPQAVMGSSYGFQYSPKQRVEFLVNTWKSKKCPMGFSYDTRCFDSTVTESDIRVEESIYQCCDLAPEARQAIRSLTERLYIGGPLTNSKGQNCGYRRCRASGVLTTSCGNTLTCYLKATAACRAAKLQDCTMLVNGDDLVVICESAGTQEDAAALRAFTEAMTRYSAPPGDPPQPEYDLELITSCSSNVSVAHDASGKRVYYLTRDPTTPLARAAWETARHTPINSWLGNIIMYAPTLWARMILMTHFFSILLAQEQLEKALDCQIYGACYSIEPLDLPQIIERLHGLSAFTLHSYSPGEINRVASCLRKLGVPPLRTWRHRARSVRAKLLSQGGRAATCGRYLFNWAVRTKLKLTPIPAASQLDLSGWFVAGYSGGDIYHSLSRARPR
The series can be described thus: Cell-free enzyme assay for HCV RdRp activity. It is filed as biochemical. How it is done: NS5B RNA-dependent RNA polymerase (RdRp) is an essential enzyme fir viral replication (cf. S. B. Hwang et al., Virology 1997, 227, 439-46). The following pure compounds were tested in a cell-free enzyme assay for the detection of HCV RdRp activity: silibinin A, silibinin B, isosilibinin A, isosilibinin B, silichristin, silidianin, and the silibinin ester silibinin-C-2″,3-bis(hydrogensuccinate) disodium (active ingredient of Legalon® SIL).
Stock solutions (100 mM) of the compounds in 100% DMSO were prepared. The concentration of DMSO in all reactions was kept constant at 5%. Target enzyme for the study was HCV NS5BΔ21 polymerase genotype J4 (1b).
The IC50 value of the silibinin ester was determined from the dose-response curve of two measurements. […] Curves were fitted to data points and IC50 values were interpolated from the resulting curves using SigmaPlot 8.0 software.

Series [6] relates to mouse cell line L929. Type of series: cell-based. The method, then:
An in vitro study was performed to assess the cytotoxic potential of silymarin, silibinin, silibinin bis(hydrogensuccinate) disodium salt, and succinic acid by means of the XTT test using the mouse cell line L929 (cf. D. A. Scudiero et al., Cancer Res. 48, 4827-33; O, S. Weislow et al., J. Natl. Cancer Inst., 81, 577-86; N. W. Roehm et al., J. Immunol. Methods, 142). The following concentrations of the test items were tested: 9.77, 19.53, 39.06, 78.13, 156.25, 312.5, 625, 1250 μg/mL. Complete medium (RPMI 1640 containing 10% (v/v) FCS) was used as negative control. The solvent control for the test item was RPMI 1640 medium containing 10% (v/v) FCS) and 1% DMSO. The solvent control for the positive control was also RPMI 1640 medium containing 10% (v/v) FCS and 10.0% (v/v) deionized water. SDS was used as positive control. The following concentrations were applied: 3.125, 6.25, 12.5, 25, 50, 100, 125, 250 μg/mL. The incubation time was 24 hours at 37±1.5° C.

Read-outs that look alike come from different tables or passages of the source.

As to `COc1cc([C@H]2Oc3cc([C@H]4Oc5cc(O)cc(O)c5C(=O)[C@@H]4O)ccc3O[C@@H]2CO)ccc1O` [Silibinin A], in series [1] (day 1), the “AUC(0-tz), free silibinin” value was 3.302 ± 1.551 µg·h/mL; the “Cmax, free silibinin” value stood at 0.316 ± 0.108 µg/mL; the “HVD, free silibinin” value turned out to be 10.12 ± 4.29 h; the “AUC(0-∞), free silibinin” value amounted to 3.614 ± 1.648 µg·h/mL. Moreover, in series [1] (day 1), the mean residence time (MRT) amounted to 8.49 ± 2.64 h, the time to peak (Tmax) stood at 3.73 ± 1.22 h, the clearance is 7 L/h/kg and the Vd stood at 51.4 ± 12.7 L/kg. The half-life in series [1] (day 1) was 4.58 ± 1.35 h. For the same molecule, in series [1] (day 7), the “% PTF, free silibinin” value is recorded as 164.00 ± 45.33%; the “AUCss, free silibinin” value came out at 4.095 ± 1.942 µg·h/mL; the “Cav, free silibinin” value came to 0.171 ± 0.081 µg/mL; the “Cmax, free silibinin” value came to 0.315 ± 0.119 µg/mL. Further, in series [1] (day 7), the “HVD, free silibinin” value amounted to 11.87 ± 2.64 h; the mean residence time (MRT) was 9.88 ± 1.86 h; the clearance is 5.9 L/h/kg; the Vd was determined as 55.3 ± 18.5 L/kg. The half-life in series [1] (day 7) is 6.85 ± 1.29 h.

`COc1cc([C@@H]2Oc3cc([C@H]4Oc5cc(O)cc(O)c5C(=O)[C@@H]4O)ccc3O[C@H]2CO)ccc1O` [Silibinin B]: in series [1] (day 1), the “AUC(0-tz), free silibinin” value stood at 0.559 ± 0.339 µg·h/mL; the “Cmax, free silibinin” value is 0.09 ± 0.044 µg/mL; the “HVD, free silibinin” value was 6.09 ± 2.14 h; the “AUC(0-∞), free silibinin” value is 0.753 ± 0.397 µg·h/mL. Also, in series [1] (day 1), the MRT came to 8.81 ± 6.12 h, the time of peak concentration (Tmax) amounted to 4.03 ± 0.04 h, the clearance was 44.8 L/h/kg and the Vd was 286 ± 164 L/kg. Further, the half-life in series [1] (day 1) was 5.16 ± 4.96 h. Also, in series [1] (day 7), the “% PTF, free silibinin” value was determined as 305.24 ± 80.46%; the “AUCss, free silibinin” value turned out to be 1.041 ± 0.627 µg·h/mL; the “Cav, free silibinin” value stood at 0.043 ± 0.026 µg/mL; the “Cmax, free silibinin” value is 0.12 ± 0.054 µg/mL. Further, in series [1] (day 7), the “HVD, free silibinin” value came to 7.17 ± 1.63 h; the mean residence time MRT was determined as 6.27 ± 2.39 h; the clearance is 26.8 L/h/kg; the Vd was 140 ± 49 L/kg. The half-life in series [1] (day 7) was 4.35 ± 1.66 h.

Regarding `COc1cc(C2Oc3cc(C4Oc5cc(O)cc(O)c5C(=O)C4OC(=O)CCC(=O)O)ccc3OC2COC(=O)CCC(=O)O)ccc1O` (stereo not drawn) [silibinin C-2′,3-bis(hydrogensuccinate)], the “ALT after iv monotherapy” value in series [2] was determined as 118±107 U/1. In series [3] (10 mg/kg/day iv for 7 days), the “mean log decline of HCV RNA within one week” value is given as 1.32±0.55 log. For the same molecule, in series [3] (10 mg/kg/day iv over 4 h for 7 days, baseline 6.59±0.53, 16 nonresponders, p<0.001), the “Serum HCV RNA at day 8 (mean±SD)” value was 5.26±0.81 log IU/ml. Further, the “viral load after second co-treatment, FIG. 7 patient” value in series [4] (20 mg/kg/day iv 14 days, permanently depressed) is listed as “below the detection limit”. For the same molecule, the “viral load rebound after the first administration interval, FIG. 7 patient” value in series [4] (person) is recorded as “about 2 IU/mL”. For the same molecule, in series [4] (person, 20 mg/kg/day iv 14 days after 30 weeks, from about log 4 IU/mL, permanent), the “viral load after co-treatment, FIG. 8 patient” value is reported as “below the detection limit”. Besides, in series [4] (person, 20 mg/kg/day iv 14 days after 72 weeks), the “viral load after co-treatment, FIG. 9 patient” value is on record as “far below the detection limit”. In addition, the “viral load after first co-treatment, FIG. 7 patient” value in series [4] (person, 20 mg/kg/day iv 14 days from week 24, from about log 4.5 IU/mL) is given as “below the detection limit”. This molecule gave an IC50 in series [5] of 47 ± 14 µM. For the same molecule, the “NS5B inhibition compared with six purified constituents of silymarin” value in series [5] (FIG. 11 vs FIG. 12) is reported as “most efficient”.

Take silymarin: in series [6], the “calculated XTT50 value” is 35.2 µg/mL and the “cytotoxic potential higher than that of silibinin” value is given as around 100%.
